In patent publication US8232283B2, “Raf inhibitors” (Forma Therapeutics, Inc., priority 2008, dated 2012):
Read-outs that look alike come from different tables or passages of the source.

How the values were obtained:
A-431 [B-Raf wildtype] = assay: Anti-proliferative activity, SRB assay, 72 hours; assay type: cell-based; details: Homo sapiens, read-out: CELLULAR IC50 [μM] A-431 [B-Raf wildtype]
Procedure: (§1) Cells were exposed to the test compounds at various concentrations appropriate to determine an IC50, for 72 hours, and cell proliferation was measured using the SRB assay according to Shekan et al (J Natl Cancer Inst (1990) 82, 1107-112) in order to estimate the IC50 values shown in Table 3.
(§2) Briefly, cells were plated in 96 well dishes 24 hours prior to compound addition at the densities specified in Table 11.1.
(§3) The assay was terminated with the addition of ice cold 10% TCA after growth medium has been removed and the plates were incubated over night at 4° C. The plates were then washed 5 times with water and 100 μl of a Sulforhodamine B solution ([…]) was added to each well. The plates were then incubated for 10 minutes at room temperature before removal of unbound dye by washing with 1% acetic acid. The bound dye was solubilized with 10 mM Trizma base and the absorbance read at OD520.
(§4) Inhibitory activity of the compounds was calculated as % inhibition of cell proliferation compared to cells treated with the solvent (DMSO).

B-Raf (V600E) = B-Raf (V600E) (Homo sapiens, UniProt P15056, V600E); assay: SelectScreen Kinase Profiling Service (Invitrogen), IC50 with or without 5 h preincubation of kinase/test compound; assay type: biochemical
Procedure: (§5) d) B-Raf/B-Raf (V600E) (SelectScreen™ Assay)
(§6) Selected compound of the present invention were tested in the Select Screen™ Kinase Profiling Service (Invitrogen Corporation, Madison, Wis. 53719, USA) against B-Raf and the B-Raf (V600E) [“V599E” in terminology used by Invitrogen], under conditions of non-disclosure, non-dissemination and non-use.
(§7) In brief, compounds 11 and 39 (see Table 1) were tested at Invitrogen against B-Raf and the B-Raf (V600E), either with or without preincubation of kinase/test compound for 5 hours.

B-Raf = B-Raf (Homo sapiens, UniProt P15056); assay: as above; assay type: biochemical
Procedure: as §5, §6, §7

[1] = tested on: HT-29 [B-Raf V600E mutant]; assay: Anti-proliferative activity, SRB assay, 72 hours; assay type: cell-based; details: Homo sapiens, read-out: CELLULAR IC50 [μM] HT-29 [B-Raf V600E mutant]
Procedure: We observed the surprising finding that compounds of the invention were useful in inhibiting proliferation of HT-29 tumor cells (see Table 3).
as §1, §2, §3, §4

p38 = target: T1, p38 (Homo sapiens, UniProt Q16539); assay: Biochemical inhibition, standard selectivity panel (Proteros); design: dose or concentration left out as unconfirmed
T1 construct: purchased Proteros biostructures GmbH (selectivity panel service)
Procedure: (§8) For example, selected compound of the present invention were tested in a standard selectivity panel including c-Raf, p38, and 22 other kinases (Proteros biostructures GmbH, Martinsried/Munich, Germany), under conditions of non-disclosure, non-dissemination and non-use.
(§9) In brief, selected compounds of the present invention were tested […] in triplicates against c-Raf, p38 as well as against Ab1, Akt1, Aur A, c-Kit, c-Raf, Cdk1/CycB, Chk1, FGFR3, Flt3, Fyn, IGF1-R, INSR, Lyn, MAPK-ERK1, PAK-4, PKCalpha, Plk1, Ret, ROCK2, RSK 1, c-Src, TIE2, and VEGF-R2.

C-Raf = target: T2, C-Raf (Homo sapiens, UniProt P04049); assay: as above; design: dose or concentration left out as unconfirmed
T2 construct: purchased Proteros biostructures GmbH (selectivity panel service)
Procedure: as §8, §9

T2 sequence (P04049 whole entry): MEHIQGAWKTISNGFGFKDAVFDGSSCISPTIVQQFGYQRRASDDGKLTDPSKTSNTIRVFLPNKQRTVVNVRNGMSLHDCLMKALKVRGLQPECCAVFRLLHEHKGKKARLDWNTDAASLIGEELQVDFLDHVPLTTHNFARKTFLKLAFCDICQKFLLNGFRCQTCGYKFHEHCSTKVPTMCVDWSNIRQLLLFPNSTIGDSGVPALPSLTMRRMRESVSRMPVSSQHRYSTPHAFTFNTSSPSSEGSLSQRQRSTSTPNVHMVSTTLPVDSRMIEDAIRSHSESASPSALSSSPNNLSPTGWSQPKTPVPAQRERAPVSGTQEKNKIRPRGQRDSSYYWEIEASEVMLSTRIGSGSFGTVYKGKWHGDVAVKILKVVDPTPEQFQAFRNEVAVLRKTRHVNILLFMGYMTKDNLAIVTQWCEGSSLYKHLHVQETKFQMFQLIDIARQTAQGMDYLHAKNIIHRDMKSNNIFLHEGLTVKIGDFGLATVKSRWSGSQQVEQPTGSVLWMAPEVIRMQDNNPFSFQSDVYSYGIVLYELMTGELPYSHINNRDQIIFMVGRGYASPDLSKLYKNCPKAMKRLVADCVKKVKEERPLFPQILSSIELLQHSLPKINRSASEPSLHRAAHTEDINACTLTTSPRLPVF
T1 sequence (Q16539 whole entry): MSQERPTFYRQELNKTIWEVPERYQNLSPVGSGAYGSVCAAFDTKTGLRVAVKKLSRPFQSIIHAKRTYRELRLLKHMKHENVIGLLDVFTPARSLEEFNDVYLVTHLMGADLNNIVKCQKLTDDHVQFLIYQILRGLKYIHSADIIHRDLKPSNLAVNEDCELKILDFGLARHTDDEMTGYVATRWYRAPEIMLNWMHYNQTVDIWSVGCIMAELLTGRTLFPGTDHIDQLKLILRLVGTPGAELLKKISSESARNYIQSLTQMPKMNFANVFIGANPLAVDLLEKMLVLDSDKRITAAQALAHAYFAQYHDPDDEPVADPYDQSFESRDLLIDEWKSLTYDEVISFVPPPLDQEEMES
Chain of B-Raf (P15056 whole entry): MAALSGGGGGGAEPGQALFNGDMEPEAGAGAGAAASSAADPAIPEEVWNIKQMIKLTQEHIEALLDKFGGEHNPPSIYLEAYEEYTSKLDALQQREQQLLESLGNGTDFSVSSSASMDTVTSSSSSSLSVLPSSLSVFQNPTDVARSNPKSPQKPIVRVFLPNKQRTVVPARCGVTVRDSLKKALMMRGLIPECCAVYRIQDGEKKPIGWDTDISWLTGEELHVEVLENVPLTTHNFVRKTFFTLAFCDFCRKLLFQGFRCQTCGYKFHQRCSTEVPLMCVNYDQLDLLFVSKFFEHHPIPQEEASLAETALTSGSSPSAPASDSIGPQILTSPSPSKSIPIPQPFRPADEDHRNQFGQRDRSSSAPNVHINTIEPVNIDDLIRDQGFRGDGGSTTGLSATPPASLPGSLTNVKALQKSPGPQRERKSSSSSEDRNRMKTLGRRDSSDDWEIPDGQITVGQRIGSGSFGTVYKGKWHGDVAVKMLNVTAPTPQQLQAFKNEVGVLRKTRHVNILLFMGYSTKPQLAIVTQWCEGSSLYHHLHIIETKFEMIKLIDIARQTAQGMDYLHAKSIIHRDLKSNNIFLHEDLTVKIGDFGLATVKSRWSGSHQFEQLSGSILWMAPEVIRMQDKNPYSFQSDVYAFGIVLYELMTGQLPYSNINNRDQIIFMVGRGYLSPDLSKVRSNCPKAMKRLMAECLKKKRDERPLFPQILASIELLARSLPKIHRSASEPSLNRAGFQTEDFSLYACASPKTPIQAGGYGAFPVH
Chain of B-Raf (V600E) (P15056 whole entry V600E): as the sequence (P15056 whole entry) above, with V600E counted along it

Row | Structure (SMILES) | IC50 (A-431 [B-Raf wildtype]) [µM] | IC50 (B-Raf (V600E); 5 h preincubation of kinase/test compound, read-out: IC50 [nM] B-Raf (V600E) 5 h preincub.) [nM] | IC50 (B-Raf (V600E); without preincubation of kinase/test compound, read-out: IC50 [nM] B-Raf (V600E) w/o preincub.) [nM] | IC50 (B-Raf; 5 h preincubation of kinase/test compound, read-out: IC50 [nM] B-Raf 5 h preincub.) [nM] | IC50 (B-Raf; without preincubation of kinase/test compound, read-out: IC50 [nM] B-Raf w/o preincub.) [nM] | IC50 [1] [µM] | inhibition (p38) [%] | inhibition (C-Raf) [%]
1 | COn1c(=O)c(-c2cc(NC(=O)c3cc(C(C)(C)C)nn3C)ccc2Cl)cc2cnc(NCCN(C)C)nc21 [Compound 11, 5-tert-Butyl-2-methyl-2H-pyrazole-3-carboxylic acid {4-chloro-3-[2-(2-dimethylamino-ethylamino)-8-methoxy-7-oxo-7,8-dihydro-pyrido[2,3-d]pyrimidin-6-yl]-phenyl}-amide] | > 10 | < 100 | < 100 | < 250 | < 250 | < 10 |  | 
2 | COn1c(=O)c(-c2cc(NC(=O)c3cc(F)cc(C(F)(F)F)c3)ccc2Cl)cc2cnc(NCCN(C)C)nc21 [Compound 28] | > 10 |  |  |  |  | < 5 | > 70 | > 70
3 | COn1c(=O)c(-c2cc(NC(=O)c3ccc(Oc4ccccc4)cc3)ccc2Cl)cc2cnc(NCCN(C)C)nc21 [Compound 27, N-{4-Chloro-3-[2-(2-dimethylamino-ethylamino)-8-methoxy-7-oxo-7,8-dihydro-pyrido[2,3-d]pyrimidin-6-yl]-phenyl}-4-phenoxy-benzamide] | < 10 |  |  |  |  | < 5 | > 70 | > 70
4 | COn1c(=O)c(-c2cc(NC(=O)Nc3ccc(C)c(C(F)(F)F)c3)ccc2Cl)cc2cnc(NCCN(C)C)nc21 [Compound 47, 1-{4-Chloro-3-[2-(2-dimethylamino-ethylamino)-8-methoxy-7-oxo-7,8-dihydro-pyrido[2,3-d]pyrimidin-6-yl]-phenyl}-3-(4-methyl-3-trifluoromethyl-phenyl)-urea] | > 5 |  |  |  |  | < 5 | > 70 | > 70
5 | COn1c(=O)c(-c2cc(NC(=O)Nc3cc(C(F)(F)F)cc(C(F)(F)F)c3)ccc2Cl)cc2cnc(NCCN(C)C)nc21 [Compound 50, 1-(3,5-Bis-trifluoromethyl-phenyl)-3-{4-chloro-3-[2-(2-dimethylamino-ethylamino)-8-methoxy-7-oxo-7,8-dihydro-pyrido[2,3-d]pyrimidin-6-yl]-phenyl}-urea] | < 10 |  |  |  |  | < 5 | > 70 | > 70
6 | COn1c(=O)c(-c2cc(NC(=O)c3cc(Cl)nc(N4CCOCC4)c3)ccc2Cl)cc2cnc(NCCN(C)C)nc21 [Compound 61, 2-Chloro-N-(4-chloro-3-(2-(2-(dimethylamino)ethylamino)-8-methoxy-7-oxo-7,8-dihydropyrido[2,3-d]pyrimidin-6-yl)phenyl)-6-morpholin-4-yl-isonicotinamide] | > 10 |  |  |  |  | < 5 | > 70 | > 70
7 | COn1c(=O)c(-c2cc(NC(=O)Nc3ccc(F)c(C(F)(F)F)c3)ccc2Cl)cc2cnc(NCCN(C)C)nc21 [Compound 42, 1-{4-Chloro-3-[2-(2-dimethylamino-ethylamino)-8-methoxy-7-oxo-7,8-dihydro-pyrido[2,3-d]pyrimidin-6-yl]-phenyl}-3-(4-fluoro-3-trifluoromethyl-phenyl)-urea] | < 10 |  |  |  |  | < 5 | > 70 | > 70
8 | COn1c(=O)c(-c2cc(NC(=O)Nc3ccc(C(F)(F)F)cc3)ccc2Cl)cc2cnc(NCCN(C)C)nc21 [Compound 41, 1-{4-Chloro-3-[2-(2-dimethylamino-ethylamino)-8-methoxy-7-oxo-7,8-dihydro-pyrido[2,3-d]pyrimidin-6-yl]-phenyl}-3-(4-trifluoromethyl-phenyl)-urea] | < 10 |  |  |  |  | < 5 | > 70 | > 70
9 | COn1c(=O)c(-c2cc(NC(=O)c3cc(C(C)(C)C)nn3-c3ccccc3)ccc2Cl)cc2cnc(NCCN(C)C)nc21 [Compound 31, 5-tert-Butyl-2-phenyl-2H-pyrazole-3-carboxylic acid {4-chloro-3-[2-(2-dimethylamino-ethylamino)-8-methoxy-7-oxo-7,8-dihydro-pyrido[2,3-d]pyrimidin-6-yl]-phenyl}-amide] | < 10 |  |  |  |  | < 5 | > 70 | ~70

More lines, now with the values ahead:

Row | IC50 (A-431 [B-Raf wildtype]) [µM] | IC50 (B-Raf (V600E); 5 h preincubation of kinase/test compound, read-out: IC50 [nM] B-Raf (V600E) 5 h preincub.) [nM] | IC50 (B-Raf (V600E); without preincubation of kinase/test compound, read-out: IC50 [nM] B-Raf (V600E) w/o preincub.) [nM] | IC50 (B-Raf; 5 h preincubation of kinase/test compound, read-out: IC50 [nM] B-Raf 5 h preincub.) [nM] | IC50 (B-Raf; without preincubation of kinase/test compound, read-out: IC50 [nM] B-Raf w/o preincub.) [nM] | IC50 [1] [µM] | inhibition (p38) [%] | inhibition (C-Raf) [%] | Structure (SMILES)
10 | > 10 |  |  |  |  | < 5 | > 70 | > 70 | COn1c(=O)c(-c2cc(NC(=O)Nc3cccc(Cl)c3)ccc2Cl)cc2cnc(NCCN(C)C)nc21 [Compound 43, 1-{4-Chloro-3-[2-(2-dimethylamino-ethylamino)-8-methoxy-7-oxo-7,8-dihydro-pyrido[2,3-d]pyrimidin-6-yl]-phenyl}-3-(3-chloro-phenyl)-urea]
11 | > 10 |  |  |  |  | < 5 | > 70 | > 70 | COn1c(=O)c(-c2cc(NC(=O)c3ccc(Cl)c(Cl)c3)ccc2Cl)cc2cnc(NCCN(C)C)nc21 [Compound 10, 3,4-Dichloro-N-{4-chloro-3-[2-(2-dimethylamino-ethylamino)-8-methoxy-7-oxo-7,8-dihydro-pyrido[2,3-d]pyrimidin-6-yl]-phenyl}-benzamide]
12 | > 10 |  |  |  |  | < 5 | > 70 | > 70 | COn1c(=O)c(-c2cc(NC(=O)c3ccc(F)c(C(F)(F)F)c3)ccc2Cl)cc2cnc(NCCN(C)C)nc21 [Compound 17, N-{4-Chloro-3-[2-(2-dimethylamino-ethylamino)-8-methoxy-7-oxo-7,8-dihydro-pyrido[2,3-d]pyrimidin-6-yl]-phenyl)-4-fluoro-3-trifluoromethyl-benzamide]
13 | < 10 |  |  |  |  | < 5 | > 70 | > 70 | CCN(CC)c1cc(C(=O)Nc2ccc(Cl)c(-c3cc4cnc(NCCN(C)C)nc4n(OC)c3=O)c2)cc(Cl)n1 [Compound 8, 2-Chloro-N-(4-chloro-3-(2-(2-(dimethylamino)ethylamino)-8-methoxy-7-oxo-7,8-dihydropyrido[2,3-d]pyrimidin-6-yl)phenyl)-6-diethylamino-isonicotinamide]
14 | > 10 |  |  |  |  | < 10 | > 70 | > 70 | COn1c(=O)c(-c2cc(NC(=O)c3cccc(Cl)c3)ccc2Cl)cc2cnc(NCCN(C)C)nc21 [Compound 18, 3-Chloro-N-{4-chloro-3-[2-(2-dimethylamino-ethylamino)-8-methoxy-7-oxo-7,8-dihydro-pyrido[2,3-d]pyrimidin-6-yl]-phenyl}-benzamide]
15 | > 10 |  |  |  |  | < 5 | > 70 | > 70 | COn1c(=O)c(-c2cc(NC(=O)c3ccc(Cl)c(OC(F)(F)F)c3)ccc2Cl)cc2cnc(NCCN(C)C)nc21 [Compound 30, 4-Chloro-N-(4-chloro-3-[2-(2-dimethylamino-ethylamino)-8-methoxy-7-oxo-7,8-dihydro-pyrido[2,3-d]pyrimidin-6-yl]-phenyl}-3-trifluoromethoxy-benzamide]
16 | > 10 |  |  |  |  | < 10 | > 70 | > 70 | COn1c(=O)c(-c2cc(NC(=O)c3ccnc(N4CCOCC4)c3)ccc2Cl)cc2cnc(NCCN(C)C)nc21 [Compound 26, N-{4-Chloro-3-[2-(2-dimethylamino-ethylamino)-8-methoxy-7-oxo-7,8-dihydro-pyrido[2,3-d]pyrimidin-6-yl]-phenyl)-2-morpholin-4-yl-isonicotinamide]
17 | < 10 |  |  |  |  | < 5 | > 70 | > 70 | COn1c(=O)c(-c2cc(NC(=O)c3ccc(OCc4cccc(F)c4)c(Cl)c3)ccc2Cl)cc2cnc(NCCN(C)C)nc21 [Compound 32, 3-Chloro-N-{4-chloro-3-[2-(2-dimethylamino-ethylamino)-8-methoxy-7-oxo-7,8-dihydro-pyrido[2,3-d]pyrimidin-6-yl]-phenyl}-4-(3-fluoro-benzyloxy)-benzamide]
